In patent US6716987B1, “Derivatives of benzofuran or benzodioxazole compounds” (Kyowa Hakko Kogyo Co., Ltd., priority 1995, dated 2004):

Tested on: cAMP-specific phosphodiesterase (PDE IV)
Test: Inhibition of the PDE IV enzyme derived from a dog trachea
Type: biochemical
Conditions: test compound 10^−6 M; PDE IV from dog tracheal smooth muscle; substrate cAMP 1 μM
Procedure: cAMP-specific phosphodiesterase (PDE IV) was purified from a dog tracheal smooth muscle according to the method of Torphy et al. [Molecular Pharmacol., 37, 206-214 (1990)]. The PDE activity was measured by the following two steps according to the method of Kincaid and Manganiello et al. [Method in Enzymology (J. D. Corbin and R. A. Jonson, Eds.), 199, 457-470 (1988)]. Using [^3]cAMP (at a final concentration of 1 μM) as a substrate, the reaction was carried out in a standard mixture containing N,N-bis(2-hydroxyethyl)-2-aminoethanesulfonic acid (50 mM, pH=7.2), MgCl2 (1 mM), and soybean trypsin inhibitor (0.1 mg/ml). The reaction was initiated by adding the enzyme, followed by incubation at 30° C. for 10 to 30 minutes. After stopping the reaction with hydrochloric acid, the generated […] was completely converted to adenosine by 5′-nucleotidase.
The resultant was subjected to chromatography on DEAE-Sephadex A-25, and radio activity of the eluted [^3H] adenosine was counted using a scintillation counter. Each of the test drugs was dissolved in DMSO (final concentration 1.7%) and then added to the mixture.

Compound	Enzyme Inhibitory Activity (%, 10^−6 M) [%]
COc1ccc(/C=C/c2ccncc2)c2cc(-c3ccncc3)oc12.Cl.Cl [Compound 83, (E)-7-Methoxy-2-(4-pyridyl)-4-[2-(4-pyridyl)ethenyl]-benzofuran.2 hydrochloride]	89
COc1ccc(C(=O)Cc2ccncc2)c2c1OC1(CCCCC1)CC2.Cl [Compound 128, 8-Methoxy-5-[1-oxo-2-(4-pyridyl)ethyl]-spiro[3,4-dihydrobenzopyran-2,1′-cyclohexane].hydrochloride]	62
COc1ccc(C(=Cc2ccncc2)c2ccccc2)c2c1OC1(CCCC1)O2 [Compound 139, 4-Methoxy-7-[1-phenyl-2-(4-pyridyl)ethenyl]-spiro[1,3-benzodioxole-2,1′-cyclopentane]]	54
COc1ccc(/C=C/c2ccncc2)c2c1OC1(CCCC1)C2.Cl [Compound 74, (E)-7-Methoxy-4-[2-(4-pyridyl)ethenyl]-spiro[2,3-dihydrobenzofuran-2,1′-cyclopentane].hydrochloride]	73
COc1ccc(C(=O)Cc2ccncc2)c2cc(-c3ccccc3)oc12.Cl [Compound 111, 7-Methoxy-4-[1-oxo-2-(4-pyridyl)ethyl]-2-phenyl-benzofuran.hydrochloride]	69
COc1ccc(/C=C/c2ccncc2)c2cc(-c3ccccn3)oc12.Cl.Cl [Compound 85, (E)-7-Methoxy-2-(2-pyridyl)-4-[2-(4-pyridyl)ethenyl]-benzofuran.2 hydrochloride]	69
COc1ccc(C(C)(C#N)Cc2ccncc2)c2c1OC1(CCCC1)C2.Cl (racemic) [Compound 65, (±)-4-[1-Cyano-1-methyl-2-(4-pyridyl)ethyl]-7-methoxy-spiro[2,3-dihydrobenzofuran-2,1′-cyclopentane].hydrochloride]	74
COc1ccc(C(C)=Cc2ccncc2)c2c1OC1(CCCC1)C2 [Compound 75, 7-Methoxy-4-[1-methyl-2-(4-pyridyl)ethenyl]-spiro[2,3-dihydrobenzofuran-2,1′-cyclopentane]]	72
COC(=O)c1cccc(NC(=O)/C=C/c2ccc(OC)c3c2CC2(CCCC2)O3)c1 [Compound 93, (E)-7-Methoxy-4-{2-[3-(methoxycarbony)phenyl-1-ylaminocarbonyl]ethenyl}-spiro[2,3-dihydrobenzofuran-2,1′-cyclopentane]]	23
COc1ccc(CCc2ccncc2)c2c1OC1(CCCC1)O2.Cl [Compound 136, 4-Methoxy-7-[2-(4-pyridyl)ethyl]-spiro[1,3-benzodioxole-2,1′-cyclopentane].hydrochloride]	75
COc1ccc(C(=O)Nc2c(Cl)cncc2Cl)c2c1OCC2CC(=O)NCc1ccncc1 (racemic) [Compound 26, (±)-4-[(3,5-Dichloro-4-pyridyl)aminocarbonyl]-7-methoxy-3-[(4-pyridylmethyl)aminocarbonyl]methyl-2,3-dihydrobenzofuran]	79
CCCCc1cc2c(C(=O)Cc3ccncc3)ccc(OC)c2o1.Cl [Compound 109, 2-Butyl-7-methoxy-4-[1-oxo-2-(4-pyridyl)ethyl]-benzofuran.hydrochloride]	68
COc1ccc(C(Sc2ccncc2)c2ccccc2)c2c1OC(C)(C)C2 (racemic) [Compound 49, (±)-7-Methoxy-2,2-dimethyl-4-[1-phenyl-1-(4-pyridylthio)methyl]-2,3-dihydrobenzofuran]	40
CCOC(=O)CC1COc2c(OC)ccc(C(=O)Nc3ccncc3)c21 (racemic) [Compound 6, (±)-3-Ethoxycarbonylmethyl-7-methoxy-4-pyridylaminocarbonyl-2,3-dihydrobenzofuran]	66
CCC1(CC)Cc2c(C(=O)Cc3ccncc3)ccc(OC)c2O1.Cl [Compound 98, 2,2-Diethyl-7-methoxy-4-[1-oxo-2-(4-pyridyl)ethyl]-2,3-dihydrobenzofuran.hydrochloride]	85
COc1ccc(C(=O)Cc2ccncc2)c2c1O[C@@H]1CCCC[C@H]21.Cl (racemic) [Compound 105, (±)-cis-6-Methoxy-9-[1-oxo-2-(4-pyridyl)ethyl]-1,2,3,4,4a,9b-hexahydrodibenzofuran.hydrochloride]	66
COc1ccc(C=Cc2ccncc2)c2c1OC1(CCCCC1)CC2.Cl [Compound 126, 8-Methoxy-5-[2-(4-pyridyl)ethenyl]-spiro[3,4-dihydrobenzopyran-2,1′-cyclohexane].hydrochloride]	58

Compound	Enzyme Inhibitory Activity (%, 10^−6 M) [%]
COc1ccc(C(=O)Cc2ccccc2)c2cc(C(=O)c3ccccc3)oc12 [Compound 107, 2-Benzoyl-7-methoxy-4-(1-oxo-2-phenylethyl)benzofuran]	63
COc1ccc(C(=O)Cc2ccncc2)c2cc(CC(C)C)oc12.Cl [Compound 110, 7-Methoxy-2-(2-methylpropyl)-4-[1-oxo-2-(4-pyridyl)-ethyl]benzofuran.hydrochloride]	80
COc1ccc(CCc2ccncc2)c2c1OC1(CCCC1)C2.Cl [Compound 53, 7-Methoxy-4-[2-(4-pyridyl)ethyl]-spiro[2,3-dihydro-benzofuran-2,1′-cyclopentane].hydrochloride]	84
COc1ccc(CCc2c(Cl)cncc2Cl)c2c1OC1(CCCCC1)C2.CS(=O)(=O)O [Compound 54, 4-[2-(3,5-Dichloro-4-pyridyl)ethyl]-7-methoxy-spiro[2,3-dihydrobenzofuran-2,1′-cyclohexane].methanesulfonate]	81
COc1ccc(C(=O)Cc2ccncc2)c2cc(-c3ccncc3)oc12.Cl.Cl [Compound 115, 7-Methoxy-4-[1-oxo-2-(4-pyridyl)ethyl]-2-(4-pyridyl)-benzofuran.2 hydrochloride]	85
COc1ccc(C=Cc2ccncc2)c2c1OC1(CCCC1)CC2.Cl [Compound 125, 8-Methoxy-5-[2-(4-pyridyl)ethenyl]-spiro[3,4-dihydrobenzopyran-2,1′-cyclopentane].hydrochloride]	71
COc1ccc(C(Cc2ccncc2)c2ccccc2)c2cc(-c3ccncc3)oc12.Cl (racemic) [Compound 66, (±)-7-Methoxy-4-[1-phenyl-2-(4-pyridyl)ethyl]-2-(4-pyridyl)benzofuran.hydrochloride]	49
COc1ccc(C(=O)Nc2c(Cl)cncc2Cl)c2ccoc12 [Compound 33, 4-[(3,5-Dichloro-4-pyridyl)aminocarbonyl]-7-methoxy-benzofuran]	71
COc1ccc(CCc2c(Cl)cncc2Cl)c2c1OC1(CCCC1)C2.CS(=O)(=O)O [Compound 52, 4-[2-(3,5-Dichloro-4-pyridyl)ethyl]-7-methoxy-spiro[2,3-dihydrobenzofuran-2,1′-cyclopentane].methanesulfonate]	86
COc1ccc(C(=O)Nc2c(Cl)cncc2Cl)c2cc(C#N)oc12 [Compound 34, 2-Cyano-4-(3,5-dichloropyridin-4-ylaminocarbonyl)-7-methoxybenzofuran]	100
COc1ccc(CCc2ccncc2)c2c1OC1(CCCCC1)C2.Cl [Compound 55, 7-Methoxy-4-[2-(4-pyridyl)ethyl]-spiro[2,3-dihydro-benzofuran-2,1′-cyclohexane].hydrochloride]	86
COc1ccc(/C=C/c2ccncc2)c2c1OC1(CCCCC1)C2.Cl [Compound 77, (E)-7-Methoxy-4-[2-(4-pyridyl)ethenyl]-spiro[2,3-dihydrobenzofuran-2,1′-cyclohexane].hydrochloride]	87
COc1ccc(C(Cc2c(Cl)cncc2Cl)OC)c2c1OC(C)(C)C2 (racemic) [Compound 62, (±)-4-[2-(3,5-Dichloro-4-pyridyl)-1-methoxyethyl]-7-methoxy-2,2-dimethyl-2,3-dihydrobenzofuran]	63
COc1ccc(C(=O)Nc2c(Cl)cncc2Cl)c2c1OCC2CC(=O)Nc1ncccn1 (racemic) [Compound 20, (±)-4-[(3,5-Dichloro-4-pyridyl)aminocarbonyl]-7-methoxy-3-[(2-pyrimidyl)aminocarbonyl]methyl-2,3-dihydro-benzofuran]	80
COc1ccc(C(=O)Nc2ccncc2)c2c1OC1(CCCC1)CC2.CS(=O)(=O)O [Compound 124, 8-Methoxy-5-(4-pyridylaminocarbonyl)-spiro[3,4-dihydrobenzopyran-2,1′-cyclopentane].methanesulfonate]	57
COc1ccc(C(=O)Cc2ccncc2)c2cc(-c3ccccn3)oc12.Cl.Cl [Compound 117, 7-Methoxy-4-[1-oxo-2-(4-pyridyl)ethyl]-2-(2-pyridyl)-benzofuran.2 hydrochloride]	87
COc1ccc(C(=O)Nc2c(Cl)cncc2Cl)c2c1OCC2CC(=O)N1CCN(C)CC1.Cl (racemic) [Compound 17, (±)-4-[(3,5-Dichloro-4-pyridyl)aminocarbonyl]-7-methoxy-3-[(4-methylpiperazin-1-yl)carbonylmethyl]-2,3-dihydro-benzofuran.hydrochloride]	63
